Source: PubChem BioAssay (NCI)
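Five concentrations, 48 hours, 96-well plates. At the TGI there is no net growth.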

Legend:
Assay in all cases: NCI-60 cell line screen, 48 h
EKVX NSCLC = test system: EKVX NSCLC
DU-145 prostate = test system: DU-145 prostate
MDA-N = test system: MDA-N
MDA-MB-231 breast = test system: MDA-MB-231 breast
NCI-H460 lung = test system: NCI-H460 lung
HOP-92 NSCLC = test system: HOP-92 NSCLC
K-562 leukemia = test system: K-562 leukemia
OVCAR-3 ovarian = test system: OVCAR-3 ovarian
RXF 393 renal = test system: RXF 393 renal
SK-MEL-5 melanoma = test system: SK-MEL-5 melanoma
MOLT-4 leukemia = test system: MOLT-4 leukemia
TK-10 renal = test system: TK-10 renal
SN12C renal = test system: SN12C renal
786-0 renal = test system: 786-0 renal
SF-295 CNS = test system: SF-295 CNS
ACHN renal = test system: ACHN renal
SK-MEL-2 melanoma = test system: SK-MEL-2 melanoma
COLO 205 colon = test system: COLO 205 colon
T-47D breast = test system: T-47D breast
SR leukemia = test system: SR leukemia

SMILES	TGI (EKVX NSCLC) [µM]	TGI (DU-145 prostate) [µM]	TGI (MDA-N) [µM]	TGI (MDA-MB-231 breast) [µM]	TGI (NCI-H460 lung) [µM]	TGI (HOP-92 NSCLC) [µM]	TGI (K-562 leukemia) [µM]	TGI (OVCAR-3 ovarian) [µM]	TGI (RXF 393 renal) [µM]	TGI (SK-MEL-5 melanoma) [µM]	TGI (MOLT-4 leukemia) [µM]	TGI (TK-10 renal) [µM]	TGI (SN12C renal) [µM]	TGI (786-0 renal) [µM]	TGI (SF-295 CNS) [µM]	TGI (ACHN renal) [µM]	TGI (SK-MEL-2 melanoma) [µM]	TGI (COLO 205 colon) [µM]	TGI (T-47D breast) [µM]	TGI (SR leukemia) [µM]
COc1ccc(/C=C/c2sc3ccccc3[n+]2CCCCI)cc1OC	> 10	> 10	> 10	> 10	> 10	> 10	> 10	> 10	> 10	> 10	> 10	> 10	> 10	> 10	> 10	> 10	9.47	–	–	–
n1onc2c1NC1Nc3nonc3NC1N2 (configuration not stated)	> 100	> 100	> 100	–	> 100	> 100	> 100	> 100	–	> 100	> 100	> 100	> 100	> 100	> 100	> 100	–	> 100	> 100	–
O=C1NC(=O)C(CC(C(=O)C(=O)Nc2ccccc2Cl)C(=O)c2ccc3ccccc3c2)C(=O)N1 (configuration not stated)	> 100	> 100	> 100	> 100	> 100	> 100	–	> 100	> 100	> 100	> 100	> 100	> 100	> 100	> 100	> 100	> 100	> 100	–	–
O=C1CCCC2C(O)CCC[C@H]12 (some centres not stated)	> 100	> 100	> 100	> 100	> 100	–	> 100	–	> 100	> 100	> 100	> 100	> 100	> 100	> 100	> 100	> 100	> 100	> 100	> 100
O=[N+]([O-])c1ccc(-c2nc3ccc([N+](=O)[O-])cc3[nH]2)cc1	> 100	> 100	> 100	–	65.1	59.4	–	> 100	> 100	44.9	> 100	> 100	> 100	> 100	66.1	> 100	59.6	28.2	61.7	> 100
CN(C)c1nc2oc(-c3ccccc3)c(-c3ccccc3)c2c2nncn12	> 100	> 100	–	> 100	–	> 100	> 100	–	> 100	–	–	> 100	> 100	> 100	> 100	> 100	–	> 100	> 100	> 100
N#Cc1n[nH]n(C2CCCCC2)c1=O	> 100	> 100	> 100	> 100	> 100	–	–	> 100	> 100	> 100	> 100	> 100	> 100	> 100	> 100	> 100	> 100	> 100	> 100	–
